Test results taken from patent US12629359B2 (UNIVERSITA' DEGLI STUDI DI BRESCIA, priority 2020, dated 2026).
“Also recorded” adds a separate entry of the source.

Columns and labels:
[1] = test system: primary mesencephalic cultures; assay: MTT cell viability assay; type: cell-based, mouse; settings: 24 h
Procedure: The cytotoxic effect of compounds treatment was measured by evaluating mitochondrial dehydrogenase activity using the MTT salt assay.
Neuronal differentiated SK—N—SH cells were thus exposed to different concentrations of I-threo, IV-threo, I-erythro, V-threo and V-erythro as described above, and then used for the MTT cell viability assay.
Animals: C57BL/6J wt mice (C57BL/6J) (Charles River, Wilmington, MA) used in this study, were bred in our animal house facility at the Department of Molecular and Translational Medicine of University of Brescia. Animals were maintained under a 12h light-dark cycle at a room temperature (rt) of 22° C. and had ad libitum food and water. All experiments were made in accordance to Directive 2010/63/EU of the European Parliament and of the Council of 22 Sep. 2010 on the protection of animals used. All experimental and surgical procedures conformed to the National Research Guide for the Care and Use of Laboratory Animals were approved by the Animal Research Committees of the University of Brescia (Protocol Permit 719/2015-PR). All achievements were made to minimize animal suffering and to reduce the number of animals used. Primary neuronal cultures from mesencephalic tissues were dissected from C57BL/6J 13-days embryos. Briefly, after mechanical dissociation the single cells were re-suspended in Neurobasal medium containing 100 μg/ml penicillin, 100 μg/ml streptomycin, 0.5 mM glutamine and 1% B27 supplement. Cells were then centrifuged and cell count and viability assays were performed using the Trypan Blue exclusion test. Cells were seeded onto poly-D-lysine-coated glass coverslides in 24-well plates (14 μg/mL) for immunocytochemistry (100000 cells/well). Cells were maintained at 37° C. under a humidified atmosphere of 5% CO2 and […] for at least 10 days in vitro (DIV 10) prior to their use to allow their maturation. At DIV 10, cells were treated with increasing concentrations (0.01 μM-0.1 μM-1 μM-[…]) of the different compounds (I-threo, IV-threo, I-erythro, V-threo, VI-threo). Twenty-four h after the treatments, culture medium was removed and 300 μL of MTT 0.5 mg/mL diluted in culture medium was added to each well. After 90′ incubation at 37° C., the medium was removed and 250 μL aliquots of DMSO were added to each well to solubilize the formazan crystals. Absorbance was measured at 570 nm using a microplate reader. Cell viability was expressed as absorbance value.

[2] = test system: alpha-synuclein aggregation in primary mesencephalic neurons; assay: Alpha-synuclein aggregation in primary mouse midbrain neurons exposed to glucose deprivation; type: cell-based
[3] = test system: SYN120 tg mice; assay: Open-field motility after acute i.p. injection in SYN120 tg mice; type: in vivo, mouse; settings: acute i.p. 10 mg/kg, 12 month-old SYN120 tg mice
Description: We investigated the ability of compound I-threo to stimulate the motility of Parkinson's disease mice more efficiently that MPH. […] All experiments were made in accordance with Directive 2010/63/EU of the European Parliament and of the Council of 22 Sep. 2010 on the protection of animals used. All experimental procedures conformed to the National Research Guide for the Care and Use of Laboratory Animals and were approved by the Animal Research Committees of the University of Brescia (Protocol Permit 719/2015-PR). Three different groups of 12 month-old SYN120 tg mice (N=3 animals per group) were used for the motility assay by using the open-field behavioural paradigm. The motility of the animals in the open-field arena was registered and analysed by using the Any-Maze system. […] The total distance travelled by the mice during 2.5 minutes intervals was plotted on graphs.

[4] = test system: alpha-synuclein aggregation in SK—N—SH cells; assay: Alpha-synuclein aggregation after glucose deprivation in SK-N-SH alpha-synuclein stable clones (immunocytochemistry); type: cell-based, human
Procedure: Human neuroblastoma SK—N—SH full length (fl) alpha-synuclein stable clones were seeded onto poly-D-lysine-coated glass coverslides in 24-well plates and were grown in complete medium comprising Dulbecco's modified Eagle's medium with 1000 mg glucose/l supplemented with 10% heat-inactivated fetal bovine serum, 100 μg/ml penicillin and 100 μg/ml streptomycin. Cells were maintained at 37° C. under a humidified atmosphere of 5% CO2 and […]. At 80% confluence, cells underwent glucose deprivation (GD) in order to induce alpha-synuclein aggregation (Bellucci, A.; et al. Journal of neurochemistry 2008, 106, 560-577). Briefly, GD was performed through an incubation of the cells with Hank's balanced salt solution supplemented with 2 mM glutamine and 10% heat-inactivated fetal bovine serum, for 1 h at 37° C. […] After 24 h of treatment, cells were fixed by incubating for 15 min in 4% paraformaldehyde with 4% sucrose in 1 M PBS, pH 7.4. The fixed cells were then stored in PBS-containing 0.05% sodium azide. Slides were incubated for 1 h at room temperature in blocking solution [2% w/v bovine serum albumin (BSA) plus 3% v/v normal goat serum in PBS], then overnight at 4° C. with the primary antibody (Syn211 antibody against alpha-synuclein) at the optimal working dilution. On the following day, cells were incubated for 1 h at room temperature with the Cy3-conjugated secondary antibody diluted in 0.1% Triton X-100 PBS plus BSA 1 mg/ml. Finally, cell nuclei were counterstained with Hoechst 33258 dye, and the coverslips were mounted onto glass slides using Vectashield.

[5] = test system: SYN120 tg mice; assay: Open-field motility after chronic 6 weeks treatment in SYN120 tg mice; type: in vivo, mouse; settings: daily i.p. 5 mg/kg for 6 weeks, vs vehicle
Procedure: Two groups of 12 month-old SYN120 tg mice (N=4 animals per group) were subjected to daily i.p. administration of either vehicle or compound I-threo (5 mg/kg) for 6 weeks. All experiments were made in accordance with Directive 2010/63/EU of the European Parliament and of the Council of 22 Sep. 2010 on the protection of animals used. All experimental or surgical procedures conformed to the National Research Guide for the Care and Use of Laboratory Animals and were approved by the Animal Research Committees of the University of Brescia (Protocol Permit 719/2015-PR). At the end of treatment, the total distance travelled by the mice was recorded in the open field arena. […] Student's t-test. N=3 for each experimental group.

| Compound | cell viability (MTT) at 100 μM [1] | alpha-synuclein inclusion formation (total immunofluorescence intensity and particle size) ([2]; I-threo, VI-threo 50 and 100 nM, MPH 100 nM, hydrochloride) | efficiency higher than that of MPH ([2]; primary neurons) | motility (total distance travelled) in open field arena [3] | alpha-synuclein aggregates seen in images after GD ([4]; 10 μM, 24 h, vs non-treated (NT) cells, preliminary) | formation of alpha-synuclein inclusions after GD (immunofluorescence intensity and average particle size) ([4]; 10 μM, 24 h after 1 h glucose deprivation, vs untreated, hydrochloride) | EC50 ([4]; Homo sapiens, SK-N-SH cells, read-out: EC50 in reducing alpha-synuclein aggregation) [nM] | efficacy (% effect) in reducing alpha-synuclein aggregation, compared with MPH ([4]; SK-N-SH cells) | EC50 fold lower than that of MPH ([4]; SK-N-SH cells, I-threo vs MPH) [fold] | total motility (total distance travelled) in open field [5] | cell viability (MTT) at 100 μM ([1]; hydrochloride) | toxic effects (MTT) at the working concentrations ([1]; concentrations reducing aggregation or stimulating interaction) |
| --- | --- | --- | --- | --- | --- | --- | --- | --- | --- | --- | --- | --- |
| COC(=O)[C@H](c1ccc(C)cc1)C1CCCCN1.Cl (stereo partly drawn) [I-erythro] | did not result toxic |  |  |  |  |  |  |  |  |  |  |  |
| COC(=O)[C@@H](c1ccc(C)cc1)C1CCCCN1.Cl (stereo partly drawn) [I-threo, threo methyl 2-(piperidin-2-yl)-2-(p-tolyl)acetate hydrochloride] |  | significantly reduce alpha-synuclein inclusion formation; also recorded: efficiently hinders alpha-synuclein aggregation | 50-70% | improve the motility of SYN120 tg mice more efficiently than MPH | no aggregates were observed | significantly reduce the formation of alpha-synuclein inclusions; also recorded: significantly reduce alpha-synuclein aggregation in vitro | 431 | almost comparable | 200 | significant improvement in total motility | reduce the cell viability; also recorded: significant decrease in cell viability | did not exhibit toxic effects |
